Where no end group is shown, it is not given here. The star is where a group is joined. Acm = CC(=O)NC*
Key:
Type in all cases: cell-based
neutrophils [1] = test: Chemotactic properties, neutrophil migration under agarose; details: towards agent well; 1 × 10^−7 M fMLP, peptide, or 10^3 U/ml TNFα; 2×10^5 neutrophils
Procedure: 5 μl of neutrophils (2×10^5 cells) were added to the inner well, with chemotactic agent or control medium added to the outer wells. Migration at various time intervals was then measured.

monocytes = test: Priming of monocytes for a respiratory burst (chemiluminescence); details: with fMLP; 10^6 monocytes/tube/ml; 419 100 μg/10^6 monocytes, 50 U TNF or no pre-treatment, 30 min pre-incubation 37° C.
Procedure: Peptide 419 (SEQ ID NO. 18) was assayed for its ability to prime monocytes for a respiratory burst. This assay was conducted essentially as described above for neutrophils except that the cells were cultured for 24 hours prior to assay.

human neutrophils [2] = test: Chemiluminescence assay: priming of neutrophils for F-met-leu-phe response (respiratory burst); details: for lucigenin dependent chemiluminescence, peak of response: 20 min pretreatment before f-met-leu-phe; for Chemiluminescence, neutrophil respiratory burst: 100 ug peptide, second, Table 4; for chemiluminescence (repeat experiment, Table 3): peptide + fMLP; for Chemiluminescence mean + sem: priming neutrophils for respiratory burst
Procedure: Purified human neutrophils were pretreated with peptide for 20 minutes before the addition of f-met-leu-phe. The lucigenin dependent chemiluminescence response, which reflects superoxide production, was then measured. The results obtained are set out in Table 2 and are expressed as mV of lucigenin dependent chemiluminescence and represent the maximal cell activity attained.
Results are expressed as mV of lucigenin dependent chemiluminescence and represent peak of response i.e. the maximal cell activity attained.

neutrophils [3] = test: Neutrophil random migration out of wells in agarose
Text: Migration of cells is an important property by which cells reach infection sites. Their accumulation at these sites is also dependent on the capacity of inflammatory mediators to inhibit their migration out of the sites.

human neutrophils [4] = test: Chemiluminescence assay: priming of neutrophils for F-met-leu-phe response (respiratory burst); details: peptide alone
neutrophils [5] = test: Superoxide formation, cytochrome reduction assay
Text: The effect of peptides 308 and 309 (SEQ ID NOs. 10 & 11) on superoxide formation was examined by the cytochrome reduction assay, according to the procedure of Ferrante, 1989 (Infection and Immunity), 57: 2115-2122). The results, expressed as n moles of O2/5×10^5 cells as set out in Table 6.

neutrophils [6] = test: Neutrophil degranulation: Vitamin B12 binding protein release (specific granules); details: for Vitamin B12 Binding Protein, Exp. 1 / Vitamin B12 Binding Protein, Exp. 2 / Vitamin B12 Binding Protein, Exp. 3 / Vitamin B12 Binding Protein, Exp. 4: in the presence of CytoB
neutrophils [7] = test: Neutrophil degranulation: β-glucuronidase release (azurophilic granules); details: for β-glucuronidase release, Exp. 1 / β-glucuronidase release, Exp. 2 / β-glucuronidase release, Exp. 3 / β-glucuronidase release, Exp. 4: in the presence of CytoB
[8] = peptide 100 μg/10^6 cells (or HBSS) + fMLP
[9] = peptide 100 μg/10^6 cells, no fMLP

Compound: CSCC[C@H](NC=O)C(=O)N[C@@H](CC(C)C)C(=O)N[C@@H](Cc1ccccc1)C(=O)O [fMLP, N-formyl-L-methionyl-L-leucyl-L-phenylalanine, reference compound]
- Migration distance at 1.5 h, Agent (neutrophils [1]): 1.46 mm
- Migration distance at 2.5 h, Agent (neutrophils [1]): 2.45 mm
- Peak mV Chemiluminescence, Mean ± S.D. (monocytes): 109.0 ± 7.071 mV
- Peak mV Chemiluminescence, experiment 2 (monocytes): 114.0 mV

Compound: A E G Q L Q W L N R R A N A L L A N G (AEGQLQWLNRRANALLANG) [Peptide 307]
- lucigenin dependent chemiluminescence, peak of response (human neutrophils [2]; peptide 1 μg/10^6 cells): 0.35 mV
- lucigenin dependent chemiluminescence, peak of response (human neutrophils [2]; peptide 10 μg/10^6 cells): 0.37 mV
- lucigenin dependent chemiluminescence, peak of response (human neutrophils [2]; peptide 100 μg/10^6 cells): 0.42 mV

Compound: A K P W Y E P I Y L (AKPWYEPIYL) [Peptide 275]
- lucigenin dependent chemiluminescence, peak of response (human neutrophils [2]; peptide 1 μg/10^6 cells): 0.99 mV
- lucigenin dependent chemiluminescence, peak of response (human neutrophils [2]; peptide 10 μg/10^6 cells): 0.69 mV
- lucigenin dependent chemiluminescence, peak of response (human neutrophils [2]; peptide 100 μg/10^6 cells): 0.43 mV
- lucigenin dependent chemiluminescence, peak of response (human neutrophils [2]; peptide 500 μg/10^6 cells): 0.80 mV

Compound: A V S Y Q T K V N L L (AVSYQTKVNLL) [Peptide 396]
- Chemiluminescence, neutrophil respiratory burst (human neutrophils [2]): 0.70 mV

Compound: HVLLTHTISRIAVSYQTKVNLL (HVLLTHTISRIAVSYQTKVNLL) [Peptide 309]
- effect on neutrophil random migration (in words) (neutrophils [3]): potent inhibitors of neutrophil migration
- Inhibition of Migration (neutrophils [3]; 10 μg/10^6 cells): 0%
- Inhibition of Migration (neutrophils [3]; 100 μg/10^6 cells): 100%
- neutrophil stimulating activity / stimulation of neutrophil respiratory burst (in words) (human neutrophils [2]): neutrophil stimulating activity
- priming of neutrophils for the respiratory burst associated with f-met-leu-phe treatment (in words) (human neutrophils [2]): found to prime human neutrophils for the respiratory burst
- Chemiluminescence, neutrophil respiratory burst (human neutrophils [2]): 4.70 mV
- lucigenin dependent chemiluminescence, peak of response (human neutrophils [2]; peptide 1 μg/10^6 cells): 0.38 mV
- lucigenin dependent chemiluminescence, peak of response (human neutrophils [2]; peptide 10 μg/10^6 cells): 0.98 mV
- lucigenin dependent chemiluminescence, peak of response (human neutrophils [2]; peptide 100 μg/10^6 cells): 13.44 mV
- chemiluminescence (repeat experiment, Table 3) (human neutrophils [2]; 10 μg/10^6 cells): 2.46 mV
- chemiluminescence (repeat experiment, Table 3) (human neutrophils [2]; 100 μg/10^6 cells): 12.84 mV
- Migration distance at 1.5 h, Agent (neutrophils [1]): 0.53 mm
- Migration distance at 2.5 h, Agent (neutrophils [1]): 0.68 mm
- chemiluminescence (repeat experiment, Table 3) (human neutrophils [4]; 10 μg/10^6 cells): 0.31 mV
- chemiluminescence (repeat experiment, Table 3) (human neutrophils [4]; 100 μg/10^6 cells): 0.69 mV
- superoxide formation (neutrophils [5]; peptide + fMLP, 10 μg/5 × 10^5 cells): 3.87 n moles of O2/5×10^5 cells
- superoxide formation (neutrophils [5]; peptide + fMLP, 100 μg/5 × 10^5 cells): 5.14 n moles of O2/5×10^5 cells
- superoxide formation (neutrophils [5]; peptide alone, 10 μg/5 × 10^5 cells): 0.62 n moles of O2/5×10^5 cells
- superoxide formation (neutrophils [5]; peptide alone, 100 μg/5 × 10^5 cells): 2.30 n moles of O2/5×10^5 cells

Compound: K G Q G Cys (Acm) P S T H V L L T H T (KGQGC(Acm)PSTHVLLTHT) [Peptide 462, reference compound]
- priming of neutrophils for the respiratory burst associated with f-met-leu-phe treatment (in words) (human neutrophils [2]): does not possess the biological activity of those peptides
- Chemiluminescence mean + sem (human neutrophils [2]; 1 μg peptide): 3.1 ± 0.5 mV
- Chemiluminescence mean + sem (human neutrophils [2]; 10 μg peptide): 4.8 ± 0.7 mV
- Chemiluminescence mean + sem (human neutrophils [2]; 100 μg peptide): 4.8 ± 0.5 mV

Compound: LFKGQGCPSTHVLLTHTISRI (LFKGQGCPSTHVLLTHTISRI) [Peptide 304]
- effect on neutrophil random migration (in words) (neutrophils [3]): chemokinetic
- Inhibition of Migration (neutrophils [3]; 10 μg/10^6 cells): −43%
- Inhibition of Migration (neutrophils [3]; column headed 0 μg/10^6 cells): −16%
- neutrophil stimulating activity / stimulation of neutrophil respiratory burst (in words) (human neutrophils [2]): neutrophil stimulating activity
- priming of neutrophils for the respiratory burst associated with f-met-leu-phe treatment (in words) (human neutrophils [2]): found to prime human neutrophils for the respiratory burst
- lucigenin dependent chemiluminescence, peak of response (human neutrophils [2]; peptide 1 μg/10^6 cells): 0.18 mV
- lucigenin dependent chemiluminescence, peak of response (human neutrophils [2]; peptide 10 μg/10^6 cells): 0.43 mV
- lucigenin dependent chemiluminescence, peak of response (human neutrophils [2]; peptide 100 μg/10^6 cells): 2.56 mV
- lucigenin dependent chemiluminescence, peak of response (human neutrophils [2]; peptide 500 μg/10^6 cells): 2.76 mV
- chemiluminescence (repeat experiment, Table 3) (human neutrophils [2]; 10 μg/10^6 cells): 0.91 mV
- chemiluminescence (repeat experiment, Table 3) (human neutrophils [2]; 100 μg/10^6 cells): 6.97 mV
- release from specific granules (Vitamin B12 binding protein), in words (neutrophils [6]; absence of fMLP): no effect
- Vitamin B12 Binding Protein, Exp. 1 (neutrophils [6]; [8]): 43.76
- Vitamin B12 Binding Protein, Exp. 2 (neutrophils [6]; [8]): 35.60
- Vitamin B12 Binding Protein, Exp. 3 (neutrophils [6]; [8]): 59.15
- Vitamin B12 Binding Protein, Exp. 4 (neutrophils [6]; [8]): 37.12
- Vitamin B12 Binding Protein, Exp. 1 (neutrophils [6]; [9]): 11.40
- Vitamin B12 Binding Protein, Exp. 2 (neutrophils [6]; [9]): 10.82
- Vitamin B12 Binding Protein, Exp. 3 (neutrophils [6]; [9]): 13.06
- Vitamin B12 Binding Protein, Exp. 4 (neutrophils [6]; [9]): 8.42
- release from specific granules (Vitamin B12 binding protein), in words (neutrophils [6]; presence of fMLP): enhanced release from specific granules
- Migration distance at 1.5 h, Agent (neutrophils [1]): 0.47 mm
- Migration distance at 2.5 h, Agent (neutrophils [1]): 0.72 mm
- chemiluminescence (repeat experiment, Table 3) (human neutrophils [4]; 10 μg/10^6 cells): 0.36 mV
- chemiluminescence (repeat experiment, Table 3) (human neutrophils [4]; 100 μg/10^6 cells): 0.64 mV
- release from azurophilic granules (β-glucuronidase), in words (neutrophils [7]; absence of fMLP): no effect
- β-glucuronidase release, Exp. 1 (neutrophils [7]; [8]): 26.95%
- β-glucuronidase release, Exp. 2 (neutrophils [7]; [8]): 36.43%
- β-glucuronidase release, Exp. 3 (neutrophils [7]; [8]): 35.34%
- β-glucuronidase release, Exp. 4 (neutrophils [7]; [8]): 36.65%
- β-glucuronidase release, Exp. 1 (neutrophils [7]; [9]): 3.63%
- β-glucuronidase release, Exp. 2 (neutrophils [7]; [9]): 3.14%
- β-glucuronidase release, Exp. 3 (neutrophils [7]; [9]): 2.52%
- β-glucuronidase release, Exp. 4 (neutrophils [7]; [9]): 9.82%
- release from azurophilic granules (β-glucuronidase), in words (neutrophils [7]; presence of fMLP): not azurophilic granules

Compound: L R D N Q L V V P S E G L Y L I (LRDNQLVVPSEGLYLI) [Peptide 302]
- lucigenin dependent chemiluminescence, peak of response (human neutrophils [2]; peptide 1 μg/10^6 cells): 0.16 mV
- lucigenin dependent chemiluminescence, peak of response (human neutrophils [2]; peptide 10 μg/10^6 cells): 0.18 mV
- lucigenin dependent chemiluminescence, peak of response (human neutrophils [2]; peptide 100 μg/10^6 cells): 0.29 mV

Compound: L S A E I N R P D Y L D F A E S G Q V (LSAEINRPDYLDFAESGQV) [Peptide 305]
- lucigenin dependent chemiluminescence, peak of response (human neutrophils [2]; peptide 1 μg/10^6 cells): 0.27 mV
- lucigenin dependent chemiluminescence, peak of response (human neutrophils [2]; peptide 10 μg/10^6 cells): 0.36 mV
- lucigenin dependent chemiluminescence, peak of response (human neutrophils [2]; peptide 100 μg/10^6 cells): 0.24 mV

Compound: L S A I K S P C Q R E T P E G A (LSAIKSPCQRETPEGA) [Peptide 303]
- lucigenin dependent chemiluminescence, peak of response (human neutrophils [2]; peptide 1 μg/10^6 cells): 0.23 mV
- lucigenin dependent chemiluminescence, peak of response (human neutrophils [2]; peptide 10 μg/10^6 cells): 0.17 mV
- lucigenin dependent chemiluminescence, peak of response (human neutrophils [2]; peptide 100 μg/10^6 cells): 0.22 mV

Compound: L T H T I S R I A (LTHTISRIA) [Peptide 393]
- Chemiluminescence, neutrophil respiratory burst (human neutrophils [2]): 0.31 mV

Compound: P S A H V L L T H T I (PSAHVLLTHTI) [Peptide 418]
- neutrophil stimulating activity / stimulation of neutrophil respiratory burst (in words) (human neutrophils [2]): neutrophil stimulating activity

Compound: S R I A V S Y Q T K V N L L (SRIAVSYQTKVNLL) [Peptide 394]
- Chemiluminescence, neutrophil respiratory burst (human neutrophils [2]): 0.33 mV

Compound: T I S R I A V S Y Q T (TISRIAVSYQT) [Peptide 323]
- priming of neutrophils for the respiratory burst associated with f-met-leu-phe treatment (in words) (human neutrophils [2]): not found to be capable of priming neutrophils
- lucigenin dependent chemiluminescence, peak of response (human neutrophils [2]; peptide 1 μg/10^6 cells): 0.23 mV
- lucigenin dependent chemiluminescence, peak of response (human neutrophils [2]; peptide 10 μg/10^6 cells): 0.17 mV
- lucigenin dependent chemiluminescence, peak of response (human neutrophils [2]; peptide 100 μg/10^6 cells): 0.47 mV

Compound: V A H V V A N P Q A E G Q L (VAHVVANPQAEGQL) [Peptide 306]
- lucigenin dependent chemiluminescence, peak of response (human neutrophils [2]; peptide 1 μg/10^6 cells): 0.27 mV
- lucigenin dependent chemiluminescence, peak of response (human neutrophils [2]; peptide 10 μg/10^6 cells): 0.35 mV
- lucigenin dependent chemiluminescence, peak of response (human neutrophils [2]; peptide 100 μg/10^6 cells): 0.23 mV

Compound: V R S S S R T P S D K P V A H V V A (VRSSSRTPSDKPVAHVVA) [Peptide 301]
- lucigenin dependent chemiluminescence, peak of response (human neutrophils [2]; peptide 1 μg/10^6 cells): 0.93 mV
- lucigenin dependent chemiluminescence, peak of response (human neutrophils [2]; peptide 10 μg/10^6 cells): 0.74 mV
- lucigenin dependent chemiluminescence, peak of response (human neutrophils [2]; peptide 100 μg/10^6 cells): 0.55 mV
- lucigenin dependent chemiluminescence, peak of response (human neutrophils [2]; peptide 500 μg/10^6 cells): 1.10 mV
